From patent US7666677B2, “Production of stilbenes in plant hairy root cultures” (priority 2006, dated 2010)
Where “and” joins values, the source holds several entries; their conditions need not be identical. Equal values may be shown once.

Columns and labels:
[1] = test system: hairy root cultures of peanut cv. Andru II; experiment: Elicitation of peanut hairy root cultures, TLC/HPTLC of ethyl acetate extracts of the medium; assay type: cell-based, Arachis hypogaea; conditions: for fluorescent compounds induced in culture medium (TLC, UV 365 nm): all cv. Andru II hairy root lines tested, 12-day cultures, 600 μM copper sulfate or 10.2 mM sodium acetate; for fluorescent compounds induced in culture medium (TLC, UV 365 nm) / fluorescent products induced in culture medium (TLC): 24 hours; for fluorescent products induced in culture medium (TLC): line 2, 12-day culture, sodium acetate 10.2 mM, chitosan 10 mg/L, copper sulfate 600 μM, laminarin 1 mg/ml, cellulase 1 or 10 μg/ml; for color change of the root tissue and medium: lines 2, 3, 5 and 6 of cv. Andru II, elicitors applied 24 hours
Description: Establishment of hairy root cultures. Seeds of peanuts (Arachis hypogaea) cvs. Andru II and Hull (kindly provided by Dr. Daniel Gorbet, University of Florida) were surface sterilized as follows. Seeds were presoaked for 2 minutes in sterile water containing 0.003% Ivory™ detergent; immersed for 15 minutes in sterilization solution (50% Clorox™, 0.003% Ivory™ detergent) and rinsed in sterile water. To minimize Chlorox™ damage to the embryo, the test was aseptically removed and seeds were further rinsed in two changes of sterile water over a 15 minute period. Disinfected seeds were placed individually on plates containing B5 medium to allow emergence of the radicle and to screen for viable healthy seedlings. Germinated seedlings were transferred to Magenta™ boxes containing B5 medium and allowed to grow in continuous light at 28° C. for 15 to 21 days. Explants used for hairy root production were harvested following expansion of two true leaves.
Cotyledon, hypocotyl, leaf blade, stem and petiole explants were evaluated. Whole, intact plantlets were also tested. […] Intact seedlings and isolated explants were then evaluated for response to Agrobacterium infection. Three strains of Agrobacterium were tested: A. rhizogenes ATCC 15834, A. rhizogenes R1000 and A. tumefaciens EHA105 containing pRYG (containing rolA, rolB and rolC genes, Komarnytsky et al., 2004) plasmid. The latter plasmid was kindly provided by Dr. Ilya Raskin (Rutgers University, New Jersey) and mobilized into A. tumefaciens by freeze-thaw method (Holsters et al., 1978). Intact seedlings were inoculated with agrobacteria at the stem, petiole, or cotyledonary node. All other isolated explants were inoculated via epidermal incisions as described before (Medina-Bolivar et al., 2003; Medina-Bolivar and Cramer, 2004). Inoculated intact seedlings and explants were maintained in B5 medium plates under constant light at 28° C. Hairy roots developed at the inoculation site were harvested and transferred to B5 medium plates containing 600 mg/l cefotaxime, and maintained at 28° C. under continuous darkness. Roots were subcultured twice in this medium prior to transfer to antibiotic-free medium. Liquid hairy root cultures were established by inoculating ten 1-cm root tips into 250 ml flasks containing 50 ml of B5 medium. Roots were subcultured every 2 weeks and maintained on an orbital shaker at 90 rpm, 28° C. and continuous darkness.
(§1) Elicitation of hairy root cultures. […] All elicitors were dissolved in water and filter sterilized, except for chitosan which was dissolved in 1 M acetic acid. Following elicitation, all media was collected and frozen at −20° C. All root tissue was collected, fresh weight recorded and roots then rapidly frozen in liquid nitrogen prior to storage at −80° C. Controls included hairy root cultures incubated 24 hours with equivalent volumes of water or acetic acid as well as non-elicited media samples collected from the 12-day hairy root cultures prior to initiating the elicitation procedure. […] Media and root tissue were collected, processed and stored as outlined above.
(§2) Extraction of resveratrol from culture medium. Media samples were thawed (50 ml) and partitioned with 30 ml ethyl acetate in a separatory funnel. The organic phase was recovered and dried to completeness under nitrogen stream using a RapidVap N2 evaporation system (Labconco) at 40° C. and 40% rotor speed. These dried samples were resuspended in 50 μl of ethyl acetate for further analysis.
Qualitative TLC analysis. Aliquots of the extracts and pure, authentic standards of trans-resveratrol (Sigma Co, St. Louis, Mo.), polydatin—same chemical as piceid—(ChromaDex, Santa Ana, Calif.), pterostilbene (Sigma) and piceatannol (Sigma) were spotted on a 20×20 cm silica gel 60 CF254 TLC plates (Merck) or a 10×10 silica gel 60 CF254 HPTLC plates (Merck).

[2] = Solubility of resveratrol in organic solvents; assay type: physicochemical
Text: Qualitative analyses of elicited peanut hairy root cultures. In an effort to rapidly assess the various hairy root lines for resveratrol production and secretion into the culture medium, we adapted a thin layer chromatographic method (TLC) that leverages the fluorescent nature of resveratrol at defined excitation wavelengths (Nepote et al., 2004). In a preliminary experiment, the culture medium was lyophilized to completeness and the dried medium was resuspended in methanol. This extract produced a very viscous solution which was difficult to resolve by TLC. In addition, the high content of carbohydrates in this sample appeared to bind the phenolic compounds (i.e. resveratrol). In an effort to overcome these issues, we optimized the purification of resveratrol in the culture medium by determining the solubility of resveratrol in various organic solvents. […] Initial analyses of the ethyl acetate extracts of hairy root media were compared by TLC to pure authentic references standards of trans-resveratrol and piceid. […] Andru II hairy root lines tested. The strongest fluorescent chemical was detected in the medium of sodium acetate-elicited hairy roots and generated an Rf of 0.83 corresponding to that of authentic trans-resveratrol. […]

[3] = test system: hairy roots of muscadine grape; conditions: 10.2 mM sodium acetate, 24 hours, medium extract
Description: PCR analyses of hairy roots of muscadine grape (Vitis rotundifolia) cvs. Roots were analyzed for the presence of rol C and aux 2 genes. Hairy roots were cultured in B5 medium. […] Analysis was done under UV light (365 nm).

[4] = test system: hairy root cultures of peanut, line 2
Description: as §1, §2
Quantitative analysis of resveratrol and pterostilbene by GC-MS. Dried medium or root tissue extracts (0.1 mg) were derivatized with 500 μL of a mixture of bis (trimethylsilyl)trifluoroacetamide:dimethyl formamide (1:1), heated at 70° C. for 40 min. After cooling to room temperature, samples were analyzed by gas chromatography/mass spectrometry (GC-MS) on a JEOL GCMate II system (JEOL USA, Inc., USA). […] The GC capillary column used was DB-5 (0.25 mm i.d., 0.25 […], 30 m length; Agilent Technologies, USA). The carrier gas was ultra high purity helium (nexAir, USA), 1 mL/min flow rate. The inlet (splitless), GC interface, and ion chamber temperatures were 250° C., 250° C., and 230° C., respectively. The injection volume was 2 μL.
Quantitative analysis of resveratrol and pterostilbene by GC-MS. […] Cis- and trans-resveratrol were monitored for m/z 444 (and 429, 207, 147 as qualifier ions). Cis- and trans-pterostilbene were monitored for m/z 328 (and 313, 296, 156 as qualifier ions). Quantitation was performed using external standards of a commercial sample of trans-resveratrol (Sigma) and a synthetic sample of trans-pterostilbene (synthesized from methylation of resveratrol). The cis isomers were obtained by UV-irradiation (λ 306 nm) of an ethanolic solution the trans isomers (1 mg/mL) for 24 hours.
Laboratory recovery of stilbenes. […] Therefore we have calculated resveratrol recoveries based on the dry weight (DW) of the ethyl acetate extract of the culture media.

[5] = test system: hairy root cultures of N. benthamiana
Description: Seeds of Nicotiana benthamiana were surface sterilized and germinated on MS semi-solid medium. Axillary nodes were harvested from the axenic seedlings and used to establish plantlets. The latter were then micropropagated in MS medium and leaves from these plantlets were used as explants for Agrobacterium rhizogenes inoculations. Leaves were harvested from 2-3 week old plantlets and placed on B5 medium. The leaves were inoculated in the midrib with A. rhizogenes ATCC 15834. Two to 3 weeks after inoculation hairy roots initiated at the inoculation site. The roots were then transferred to B5 medium with cefotaxime to eliminate agrobacteria. After several subcultures in this medium, the roots were transferred to antibiotic-free B5 medium. Confirmation of transformation with A. rhizogenes was done by PCR. […]
To test for elicitation of stilbenes (pinosylvin, resveratrol and their derivatives), hairy root cultures of N. benthamiana lines 3NB, 4NB, 5NB and 6NB were grown for either 2 or 3 weeks as described above. […] Stilbenes were detected with a coupled diode away and fluorescence (excitation 330 nm; emission 374 nm) detector.
Further analyses were conducted by reverse phase HPLC. […] Stilbenes were detected with coupled diode array and fluorescence (excitation 330 nm; emission 374 nm) detectors. […] These compounds were further analyzed by HPLC-ESI-mass spectrometry.

[6] = test system: peanut hairy roots derived from the Hull cultivar; conditions: 10.2 mM sodium acetate, 24 hours, medium extract
Description: Using the materials and methods outlined above, resveratrol and resveratrol derivatives were elicited in the peanut hairy roots derived from the Hull cultivar. […] Control roots were not elicited. Elicited hairy root of peanut cv. Andru II (line pRYG-J) and cv. Hull s were cultured in B5 medium. […] Analysis was done under UV light (254 and 365 nm).

[7] = line 2, 15-day culture, 48 hours after elicitation

O=S(=O)([O-])[O-].[Cu+2] [copper sulfate]
fluorescent compounds induced in culture medium (TLC, UV 365 nm) [1]: induced production of blue fluorescent compounds | fluorescent products induced in culture medium (TLC) [1]: induced a fluorescent chemical of Rf 0.73 | color change of the root tissue and medium [1]: induced the browning on the tissue and of the medium

Oc1ccc(/C=C/c2cc(O)cc(O)c2)cc1 [resveratrol, trans-3,4′,5-trihydroxystilbene]
solubility of resveratrol in ethyl acetate [2]: good solubility

CC(=O)[O-].[Na+] [sodium acetate]
elicitation of resveratrol and derivatives (HPTLC) [3]: achieved | increase of resveratrol above non-elicited culture extracts ([4]; culture medium extracts): ~60 fold | cis-resveratrol levels in elicited cultures, root tissue (average) ([4]; elicited cultures): 10 ng/mg root tissue extract | trans-resveratrol remaining in the root tissue ([4]; elicited cultures): 0.2-1.1 μg/mg extract DW | trans-Resveratrol, Medium ([4]; elicited cultures, ethyl acetate extract of medium, mean of two determinations): 97992 ng per mg extract and 85282 ng per mg extract and 50339 ng per mg extract | cis-Resveratrol, Root tissue ([4]; elicited cultures, extract of root tissue, mean of two determinations): 10 ng per mg extract | production rate of trans-resveratrol per gram DW of root tissue ([4]; estimating 6 mg medium ethyl acetate extract per gram root tissue DW): 300 to 588 µg | share of total trans-resveratrol secreted into the culture medium ([4]; sodium acetate elicitation): approximately 99% | induced compound by reverse phase HPLC ([5]; 24 and 48 hours after elicitation): induced production of a major fluorescence compound | production and secretion of stilbene-like fluorescent compounds (HPTLC) ([5]; lines 3NB, 4NB, 5NB, 6NB, 10.2 mM sodium acetate, 24 or 48 hours): induced production and secretion of compounds with fluorescent characteristics of stilbene compounds | fluorescent compounds induced in culture medium (TLC, UV 365 nm) [1]: induced production of blue fluorescent compounds | fluorescent products induced in culture medium (TLC) [1]: induced two products | presence of resveratrol in culture medium, time course [1, 7]: decreased | pterostilbene levels in culture medium, time course [1, 7]: increased | trans-resveratrol and pterostilbene levels in culture medium, time course ([1]; line 2, 15-day culture, 72 hours post elicitation): decreased | sodium acetate concentration with the most effective response (dose response, HPTLC) ([1]; line 2, 24 hours, 0 to 51 mM tested): about 10 mM | color change of the root tissue and medium [1]: did not affect the color of the roots | production of resveratrol and derivatives (HPTLC) [6]: induced the production of resveratrol and derivatives

cellulase
fluorescent products induced in culture medium (TLC) [1]: no fluorescent chemicals were detected

chitosan
fluorescent products induced in culture medium (TLC) [1]: induced the two products as observed for sodium acetate elicitation

laminarin
fluorescent products induced in culture medium (TLC) [1]: induced production of a blue fluorescent chemical with an Rf 0.78
